Measurements as given in US6734211B1, “Compositions and methods for promoting nerve regeneration” (Oregon Health & Sciences University, priority 1999, dated 2004).

Tests used:
sciatic nerve = conditions: rat, following a sciatic nerve crush lesion; cited from earlier work
[1] = test system: SH-SY5Y human neuroblastoma cells; assay: Neurite outgrowth of SH-SY5Y cells in the presence of NGF; assay type: cell-based; conditions: for Mean Length of Top 50% of Neuritic Processes: 168 hours; for neurite outgrowth, effect of the compound: with NGF, concentration dependence
Protocol: This Example illustrates that FK506 and geldanamycin promote nerve regeneration by a common mechanism. SH-SY5Y human neuroblastoma cells were maintained in DMEM medium (GIBCO) supplemented with 10% fetal calf serum (SIGMA), 50 IU/mL penicillin, and […] streptomycin (GIBCO) at 37° C. in 7% CO2. Cells were plated in six-well plates at 1×10^6 cells/well and treated with […] aphidicolin (SIGMA). At five days, cells were washed, treated with nerve growth factor (NGF) (Boehringer Mannheim, Indianapolis, Ind.) at 10 ng/mL ([…]) (Calbiochem-Novabiochem Int'l., La Jolla, Calif.) and/or geldanamycin (0.1, 1, and 10 nM) (Calbiochem-Novabiochem, La Jolla, Calif.) dissolved in the DMEM medium. Media was changed at 96 hours and replaced with fresh media containing the compounds (NGF plus FK506 and/or geldanamycin) for an additional 72 hours (total time, 168 hours). The top 50% of axonal lengths were selected for statistical analysis. All experiments were run in duplicate wells and repeated at least twice for reproducibility.
(§1) For analysis of neurite process length of cells, 20 fields per well were randomly photographed at 72 and 168 hours. Neurite lengths were measured on photographic prints using a Houston Instrument HI-PAD digitizing tablet connected to an IBM XT computer with appropriate software (Bioquant IV, R&M Biometrics, Nashville, Tenn.); only those processes greater than two times the cell body length were measured. Data from identically treated wells were not different and were therefore combined. […] Histograms were compared using a Mann-Whitney U test, which makes no assumptions about the shape of the distribution.
Neuroblastoma SH-SY5Y cells were used to examine human neurite outgrowth in vitro and to explore which neuroimmunophilin mediates the effect.

[2] = test system: hippocampal neurons of wild-type mice; assay: Axonal length in primary neuronal hippocampal cultures from wild-type mice; assay type: cell-based
Protocol: (§2) FKBP-12 knockout mice (Shou, et al., Nature 391:489, 1998) were used to test whether FKBP-12 is necessary for FK506's ability to increase nerve elongation. Such mice usually die from severe cardiomyopathy between embryonic day 14.5 (E14.5) and birth, consistent with the known association between FKBP-12 and calcium release channels. […] Primary neuronal hippocampal cultures were prepared from E18.5 homozygote FKBP-12 knockout and wild-type mice.

[3] = test system: hippocampal neurons of FKBP-12 knockout mice; assay: Axonal length in primary neuronal hippocampal cultures from FKBP-12 knockout mice; assay type: cell-based
Protocol: as §2

hippocampal cells = assay: Neurite outgrowth of hippocampal cells after 72 hours; assay type: cell-based
Protocol: as §1
Utilizing the in vitro assay described in Example 2, the effect of radicicol on neurite outgrowth was investigated. Hippocampal cells were treated with radicicol at a concentration of 0.1 ng/mL and at a concentration of 10 ng/mL. The neurite outgrowth for radicicol treated cells was compared to the outgrowth for untreated cells and for cells treated with 10 ng/mL of NGF.
Utilizing the in vitro assay described in Example 2, the effect of heat alone or in combination with various compounds on neurite outgrowth was investigated. […] FIG. 5 also illustrates that a combination of heat treatment and treatment with both NGF, and Hsp-90 antibodies is not as effective as the combination of heat and NGF treatment. […]

[4] = geldanamycin 10 nM co-treatment

Molecule: C=CC[C@@H]1/C=C(\C)C[C@H](C)C[C@H](OC)[C@H]2O[C@@](O)(C(=O)C(=O)N3CCCC[C@H]3C(=O)O[C@H](/C(C)=C/[C@@H]3CC[C@@H](O)[C@H](OC)C3)[C@H](C)[C@@H](O)CC1=O)[C@H](C)C[C@@H]2OC [FK506]
- functional recovery and axonal regeneration (sciatic nerve): speed functional recovery and axonal regeneration in the rat in a dose-dependent manner
- Mean Length of Top 50% of Neuritic Processes ([1]; FK506 10 nM + NGF 10 ng/mL): 156 µm
- neurite outgrowth (cumulative histograms of neurite lengths) ([1]; FK506 10 pM-10 nM): increases neurite outgrowth
- neurite outgrowth (cumulative histograms of neurite lengths) ([1]; FK506 100 nM): less effective
- neurite outgrowth (cumulative histograms of neurite lengths) ([1]; FK506 1000 nM or greater): neurite outgrowth was inhibited
- neurite outgrowth, effect of the compound [1]: stimulate neurite outgrowth in a concentration dependent manner
- Mean axonal lengths of hippocampal neurons ([2]; FK506-treated cultures, wild-type, mean±S.E.M.): 276±11.1
- increase over non-treated values ([2]; wild-type cells): 26%
- Mean axonal lengths of hippocampal neurons ([3]; FK506-treated cultures, FKBP-12 knockout, mean±S.E.M.): 264±18.2
- increase over non-treated values ([3]; FKBP-12 knockout cells): 30%

Molecule: COC1=C2C[C@@H](C)C[C@H](OC)[C@H](O)[C@@H](C)/C=C(\C)[C@H](OC(N)=O)[C@@H](OC)/C=C\C=C(/C)C(=O)NC(=CC1=O)C2=O [Geldanamycin, geldanamycin]
- Mean Length of Top 50% of Neuritic Processes ([1]; geldanamycin 1 nM + NGF 10 ng/mL): 128 µm
- Mean Length of Top 50% of Neuritic Processes ([1]; geldanamycin 10 nM + NGF 10 ng/mL): 110 µm
- effect on neurite outgrowth promotion by FK506, dexamethasone or β-estradiol ([1]; geldanamycin 0.1 nM co-treatment): less effective in inhibiting the neurite outgrowth-promoting effect of all these compounds
- effect on neurite outgrowth promotion by FK506, dexamethasone or β-estradiol [1, 4]: inhibited neurite outgrowth promotion by FK506 , dexamethasone or β-estradiol
- effect on neurite outgrowth promotion by FKBP-52 antibody [1, 4]: enhanced the neurite outgrowth-promoting effect of the FKBP-52 antibody
- neurite outgrowth ([1]; geldanamycin 0.1-10 nM alone): increased neurite outgrowth in a concentration-dependent fashion
- neurite outgrowth, effect of the compound [1]: stimulate neurite outgrowth in a concentration dependent manner

Molecule: COc1cccc(-c2cc(=O)c3ccccc3o2)c1N [PD 098059]
- effect on neurite outgrowth by NGF and FK-506 (FIG. 6) (hippocampal cells; 2 concentrations): blocks neurite outgrowth by NGF and FK-506 in a concentration dependent fashion
- effect on neurite outgrowth by radicicol (FIG. 7) (hippocampal cells; 2 concentrations): blocks the action of radicicol in a concentration dependent fashion
- effect on neurite outgrowth by radicicol (FIG. 7) (hippocampal cells; highest concentration): almost completely blocks activity

Molecule: [Na+].[Na+].[O]=[Mo](=[O])([O-])[O-] [molybdate, sodium molybdate]
- effect on neurite outgrowth promotion by FK506 ([1]; molybdate 20 mM): reduced the neurite outgrowth promotion elicited by FK506
- effect on neurite outgrowth promotion by FKBP-52 antibody ([1]; molybdate 20 mM): inhibited the neurite outgrowth-promoting effects of FKBP-52 antibody
- effect on neurite outgrowth promotion by β-estradiol and geldanamycin ([1]; molybdate 20 mM): completely [Mann-Whitney U test (α=0.05)] inhibited the neurite outgrowth-promoting effect of β-estradiol and geldanamycin
- neurite outgrowth-promoting effect of molybdate in the presence of dexamethasone ([1]; molybdate 20 mM): significantly [Mann-Whitney U test (α=0.05)] reduced compared to molybdate alone
- neurite outgrowth ([1]; molybdate 20 mM itself): agonist effect on neurite outgrowth

Molecule: C[C@@H]1C[C@H]2O[C@@H]2/C=C\C=C\C(=O)Cc2c(Cl)c(O)cc(O)c2C(=O)O1 [radicicol]
- neurite outgrowth (cumulative histogram, FIG. 3) (hippocampal cells; radicicol 0.1 ng/mL and 10 ng/mL vs NGF 10 ng/mL): more effective than NGF alone in stimulating outgrowth

Molecule: C[C@]12CC[C@@H]3c4ccc(O)cc4CC[C@H]3[C@@H]1CC[C@@H]2O [β-estradiol]
- neurite outgrowth compared with dexamethasone ([1]; 50 nM each): greater positive effect on neurite outgrowth than dexamethasone (50 nM)
- neurite outgrowth, effect of the compound [1]: significantly increased neurite outgrowth in SH-SY5Y cells in a concentration-dependent manner

B1: NGF: nerve growth factor (Boehringer Mannheim) (protein, UniProt P01139 122-241, looked up)
Beta-nerve growth factor: SSTHPVFHMGEFSVCDSVSVWVGDKTTATDIKGKEVTVLAEVNINNSVFRQYFFETKCRASNPVESGCRGIDSKHWNSYCTTTHTFVKALTTDEKQAAWRFIRIDTACVCVLSRKATRRG
modifications: Beta-nerve growth factor
- Mean Length of Top 50% of Neuritic Processes ([1]; NGF 10 ng/mL alone): 108 µm
- neurite outgrowth (cumulative histogram, FIG. 4) (hippocampal cells; NGF in combination with heat): more effective than either heat or NGF treatment alone in stimulating neurite outgrowth
